Assay results published in patent US4980357A, “Azolidinedione derivatives” (Pfizer Inc., priority 1990, dated 1990).

What was measured:
[1] = tested on: sorbitol accumulation in the sciatic nerve; test: inhibition of sorbitol accumulation in the sciatic nerve of streptozotocinized (diabetic) rats; type: in vivo, rat; settings: oral, 0.1-10.0 mg./kg., in words
Method: (§1) The activity of the compounds of the present invention, as agents for the control of chronic diabetic complications, is determined by their ability to successfully pass one or more of the following standard biological or pharmacological tests, viz., (1) measuring their ability to inhibit the enzyme activity of isolated aldose reductase; (2) measuring their ability to reduce or inhibit sorbitol accumulation in the sciatic nerve and lens of acutely streptozotocinized (i.e., diabetic) rats; (3) measuring their ability to reverse already-elevated sorbitol levels in the sciatic nerve and lens of chronic streptozotocin-induced diabetic rats; (4) measuring their ability to prevent or inhibit galactitol formation in the lens of acutely galactosemic rats, and (5) measuring their ability to delay cataract formation and reduce the severity of lens opacities in chronic galactosemic rats.
(§2) The following spiro-3-heteroazolone compounds of Examples 4A, 4B, 6 and 10A, respectively, were tested for their ability to reduce or inhibit sorbitol accumulation in the sciatic nerve and lens of streptozotocinized (i.e., diabetic) rats by the procedure essentially described in U.S. Pat. No. 3,821,383. In the present study, the amount of sorbitol accumulation in the sciatic nerve and lens of each test animal was measured 27 hours after induction of diabetes. […]

[2] = tested on: sorbitol accumulation in the lens; test: inhibition of sorbitol accumulation in the lens of streptozotocinized (diabetic) rats; type: in vivo, rat; settings: oral, 0.1-10.0 mg./kg., in words
Method: as §1, §2

C[C@@H]1C[C@]2(NC(=O)NC2=O)c2cc(Cl)cnc2O1 [Example 10A, (4'S)(2'R)-6'-chloro-2',3'-dihydro-2'-methyl-spiro-[imidazolidine-4,4'-4'H-pyrano[2,3-b]pyridine]-2,5-dione]
inhibit the formation of sorbitol levels in the sciatic nerve [1]: to a significantly high degree
inhibit the formation of sorbitol levels in the lens [2]: to a significantly high degree
